We go through 34 compounds from US20260263606A1 (priority 2022, published 2026).

Read-outs that look alike come from different tables or passages of the source.

Series [1] addresses T1, METTL3-METTL14 (Homo sapiens, UniProt Q86U44). The conditions noted are these: for LLE (lipophilic ligand efficiency, pIC50-logP): calculated with DataWarrior; for LE (ligand efficiency): from TR-FRET IC50.
Target sequence in this assay (Q9HCE5 whole entry): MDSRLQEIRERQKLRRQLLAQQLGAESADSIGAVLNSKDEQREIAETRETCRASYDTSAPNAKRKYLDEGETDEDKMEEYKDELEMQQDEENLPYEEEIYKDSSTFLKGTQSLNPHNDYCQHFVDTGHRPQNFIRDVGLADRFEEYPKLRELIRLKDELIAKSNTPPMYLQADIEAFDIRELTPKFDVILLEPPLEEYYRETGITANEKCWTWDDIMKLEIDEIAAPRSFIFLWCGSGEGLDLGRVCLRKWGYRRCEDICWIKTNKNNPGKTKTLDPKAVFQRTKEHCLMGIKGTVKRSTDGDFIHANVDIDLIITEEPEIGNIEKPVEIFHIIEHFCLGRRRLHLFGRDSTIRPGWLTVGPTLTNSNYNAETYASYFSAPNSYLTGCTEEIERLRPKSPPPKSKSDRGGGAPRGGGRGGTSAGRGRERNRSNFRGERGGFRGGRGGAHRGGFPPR
Target sequence in this assay (Q86U44 whole entry): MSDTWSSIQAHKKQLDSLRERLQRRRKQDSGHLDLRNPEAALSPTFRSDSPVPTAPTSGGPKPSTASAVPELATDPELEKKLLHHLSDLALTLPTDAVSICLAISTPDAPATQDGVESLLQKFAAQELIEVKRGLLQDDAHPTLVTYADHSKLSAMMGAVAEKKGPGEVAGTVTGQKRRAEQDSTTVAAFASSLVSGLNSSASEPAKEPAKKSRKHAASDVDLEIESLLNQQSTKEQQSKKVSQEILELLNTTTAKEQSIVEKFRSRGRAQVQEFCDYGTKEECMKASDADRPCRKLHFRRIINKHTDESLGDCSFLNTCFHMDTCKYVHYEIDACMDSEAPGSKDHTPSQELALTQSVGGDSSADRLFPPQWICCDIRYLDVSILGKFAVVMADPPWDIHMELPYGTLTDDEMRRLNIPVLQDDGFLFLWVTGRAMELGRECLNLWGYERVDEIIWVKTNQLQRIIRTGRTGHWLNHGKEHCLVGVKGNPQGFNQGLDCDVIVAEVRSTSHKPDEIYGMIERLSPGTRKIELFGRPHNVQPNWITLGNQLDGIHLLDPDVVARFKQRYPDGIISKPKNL
The conditions of series [2]: Rat liver microsomes. A general note: Microsomes from liver hold many membrane-bound enzymes, among them those of drug oxidation.
Series [3] concerns the target T1, METTL3-METTL14. As to the kind of experiment: biochemical.
Target sequence in this assay (Q9HCE5 whole entry): as the sequence (Q9HCE5 whole entry) above
Target sequence in this assay (Q86U44 whole entry): as the sequence (Q86U44 whole entry) above
Series [4] concerns the target T1, METTL3-METTL14. Nature of the series: Protein thermal shift assay, METTL3/METTL14. Conditions: read-out: ΔTm of METTL3/METTL14.
Target sequence in this assay (Q86U44 whole entry): as above
Target sequence in this assay (Q9HCE5 whole entry partner): as the sequence (Q9HCE5 whole entry) above
For series [5], the system named is m^6A/A ratio in polyadenylated RNA, MOLM-13 cells. Nature of the series: m6A/A ratio in polyadenylated RNA by UPLC-MS/MS, MOLM-13. Conditions: Homo sapiens, MOLM-13, 16 h, read-out: EC50 reduction of m^6A/A in polyadenylated RNA.
The mark [6] stands for this setting: read-out: IC50 for N6-adenosine-methyltransferase, exemplary PROTAC compounds, Table 9, HTRF, triplicates.

As to `CNc1cc(N2CCCC(O)(CNC(=O)c3ccc(CN4CCC(C)(C)CC4)cc3)C2)ncn1` (stereo not shown) [Compound 1], on METTL3-METTL14 [1], the “LLE (lipophilic ligand efficiency, pIC50-logP)” value was 2.5 and the “LE (ligand efficiency)” value is 0.21 kcal.mol^−1 heavy atom count^−1. `CNc1cc(N2CCC(O)(CNc3ccc(CN4CCC(C)(C)CC4)cc3)CC2)ncn1` [Compound 2]: the 50% inhibitory concentration (IC50) against METTL3-METTL14 [1] (TR-FRET assay) turned out to be 5000 nM. The “LLE (lipophilic ligand efficiency, pIC50-logP)” value at METTL3-METTL14 [1] is 2.5. Taken in the same sequence, the figures for `CNc1cc(N2CCC(O)(CNc3ccc(CN4CCC(C)(C)CC4)cn3)CC2)ncn1` [Compound 3] were 4600 nM and 3.2.

`CNc1cc(N2CCC(O)(CNc3ccc(CN4CCC(C)(C)CC4)nc3)CC2)ncn1` [Compound 4] gave an IC50 against METTL3-METTL14 [1] (TR-FRET assay) of 5800 nM. Also, the “LLE (lipophilic ligand efficiency, pIC50-logP)” value on METTL3-METTL14 [1] is reported as 3.4. Take `CC1(C)CCN(Cc2ccc(NCC3(O)CCN(c4cc(NCc5ccccc5)ncn4)CC3)cn2)CC1` [Compound 5]: the half-maximal inhibitory concentration (IC50) on METTL3-METTL14 [1] (TR-FRET assay) was 790 nM.

Regarding `CC1(C)CCN(Cc2ccc(C(=O)NC3CCN(c4cc(NCc5ccccc5)ncn4)CC3)cn2)CC1` [Compound 6], at METTL3-METTL14 [1], the “LLE (lipophilic ligand efficiency, pIC50-logP)” value is 1.7 and the “LE (ligand efficiency)” value is 0.20 kcal.mol^−1 heavy atom count^−1. Regarding `CC1(C)CCN(Cc2ccc(N3CC(=O)NC4(CCN(c5cc(NCCCNC(=O)CCOCCOCCNc6cccc7c6C(=O)N(C6CCC(=O)NC6=O)C7=O)ncn5)CC4)C3)cc2)CC1` (stereo not shown) [Compound 8-4], the IC50 on METTL3-METTL14 [1] (setting [6]) was found to be 2470 nM. Still for that read-out and setting: the same measure for `CC1(C)CCN(Cc2ccc(N3CC(=O)NC4(CCN(c5cc(NCCCNC(=O)CCOCCOCCOCCNc6cccc7c6C(=O)N(C6CCC(=O)NC6=O)C7=O)ncn5)CC4)C3)cc2)CC1` (stereo not shown) [Compound 9-5]: 1060 nM. On METTL3-METTL14 [1] (TR-FRET assay), `CNc1cc(N2CCC3(CC2)CN(c2ccc(CN4CCC(C)(C)CC4)cc2)CC(=O)N3)ncn1` [Compound 10, 4-(4-((4,4-dimethylpiperidin-1-yl)methyl)phenyl)-9-(6-(methylamino)pyrimidin-4-yl)-1,4,9-triazaspiro[5.5]undecan-2-one] yielded an IC50 of 89 nM. Consider `CC1(C)CCN(Cc2ccc(N3CC(=O)NC4(CCN(c5cc(NCCCNC(=O)CCOCCOCCOCCOCCNc6cccc7c6C(=O)N(C6CCC(=O)NC6=O)C7=O)ncn5)CC4)C3)cc2)CC1` (stereo not shown) [Compound 10-6], for which the half-inhibitory concentration (IC50) on METTL3-METTL14 [1] (setting [6]) stood at 590 nM. Consider `CNc1cc(N2CC3(CN(c4ccc(CN5CCC(C)(C)CC5)cc4)CC(=O)N3)C2)ncn1` [Compound 11, 8-(4-((4,4-Dimethylpiperidin-1-yl)methyl)phenyl)-2-(6-(methylamino)pyrimidin-4-yl)-2,5,8-triazaspiro[3.5]nonan-6-one], for which, at METTL3-METTL14 [1], the “LLE (lipophilic ligand efficiency, pIC50-logP)” value is 4.5 and the “LE (ligand efficiency)” value is 0.26 kcal.mol^−1 heavy atom count^−1. Moreover, the “RLM t1/2” value in series [2] was 70 min. As to `CC1(C)CCN(Cc2ccc(N3CC(=O)NC4(CCN(c5cc(NCCCNC(=O)CCOCCOCCOCCOCCOCCNc6cccc7c6C(=O)N(C6CCC(=O)NC6=O)C7=O)ncn5)CC4)C3)cc2)CC1` (stereo not shown) [Compound 11-7], the IC50 at METTL3-METTL14 [1] (setting [6]) was found to be 640 nM. As to `CNc1cc(N2CCC3(CC2)CN(c2ccc(CN4CCC(C)(C)CC4)cc2)C(=O)N3)ncn1` [Compound 12], at METTL3-METTL14 [1], the “LLE (lipophilic ligand efficiency, pIC50-logP)” value is reported as 2.6 and the “LE (ligand efficiency)” value is reported as 0.23 kcal.mol^−1 heavy atom count^−1. In the case of `CC1(C)CCN(Cc2ccc(N3CC(=O)NC4(CCN(c5cc(NCCCNC(=O)CCn6cc(CNc7cccc8c7C(=O)N(C7CCC(=O)NC7=O)C8=O)nn6)ncn5)CC4)C3)cc2)CC1` (stereo not shown) [Compound 13-11], the IC50 on METTL3-METTL14 [3] is 1800 nM.

On METTL3-METTL14 [1] (TR-FRET assay), `CNc1cc(N2CCC3(CC2)CN(c2ccc(CN4CCC(C)(C)CC4)cc2)CC(=O)N3C)ncn1` [Compound 13] gave a half-inhibitory concentration (IC50) of 1500 nM. Besides, at METTL3-METTL14 [1], the “LLE (lipophilic ligand efficiency, pIC50-logP)” value is 3.0 and the “LE (ligand efficiency)” value is given as 0.22 kcal.mol^−1 heavy atom count^−1.

For the compound `CC1(C)CCN(Cc2ccc(N3CC(=O)NC4(CCN(c5cc(NCCCNC(=O)CCCCCCCCNc6cccc7c6CN(C6CCC(=O)NC6=O)C7=O)ncn5)CC4)C3)cc2)CC1` (stereo not shown) [Compound 14-12], the IC50 at METTL3-METTL14 [1] (setting [6]) is 260 nM.

On to `CN(C)c1cc(N2CCC3(CC2)CN(c2ccc(CN4CCC(C)(C)CC4)cc2)CC(=O)N3)ncn1` [Compound 14], for which, on METTL3-METTL14 [1], the “LLE (lipophilic ligand efficiency, pIC50-logP)” value is recorded as 3.2 and the “LE (ligand efficiency)” value is 0.23 kcal.mol^−1 heavy atom count^−1. Taken in the same sequence, the figures for `CC(C)Nc1cc(N2CCC3(CC2)CN(c2ccc(CN4CCC(C)(C)CC4)cc2)CC(=O)N3)ncn1` [Compound 15, 4-(4-((4,4-Dimethylpiperidin-1-yl)methyl)phenyl)-9-(6-(isopropylamino)pyrimidin-4-yl)-1,4,9-triazaspiro[5.5]undecan-2-one] were 3.2 and 0.24 kcal.mol^−1 heavy atom count^−1.

Regarding `CC1(C)CCN(Cc2ccc(N3CC(=O)NC4(CCN(c5cc(NCCCNC(=O)CNc6cccc7c6CN(C6CCC(=O)NC6=O)C7=O)ncn5)CC4)C3)cc2)CC1` (stereo not shown) [Compound 15-13], half-maximal inhibition on METTL3-METTL14 [3] (IC50) was put at 520 nM.

With `CC1(C)CCN(Cc2ccc(N3CC(=O)NC4(CCN(c5ccnc6[nH]ccc56)CC4)C3)cc2)CC1` [Compound 18], at METTL3-METTL14 [1], the “LLE (lipophilic ligand efficiency, pIC50-logP)” value is recorded as 2.3 and the “LE (ligand efficiency)” value is on record as 0.20 kcal.mol^−1 heavy atom count^−1. As to `CC1(C)CCN(Cc2ccc(N3CC(=O)NC4(CCN(c5nc(Cl)nc6[nH]ccc56)CC4)C3)cc2)CC1` [Compound 19, 9-(2-Chloro-7H-pyrrolo[2,3-d]pyrimidin-4-yl)-4-(4-((4,4-dimethylpiperidin-1-yl)methyl)phenyl)-1,4,9-triazaspiro[5.5]undecan-2-one], the “LLE (lipophilic ligand efficiency, pIC50-logP)” value on METTL3-METTL14 [1] is 3.9. In addition, in series [2], the “RLM t1/2” value is listed as 32 min.

Turning to `CNc1cc(N2CCC3(CC2)CN(c2cc(F)c(CN4CCC(C)(C)CC4)cc2F)CC(=O)N3)ncn1` [Compound 22, 4-(4-((4,4-Dimethylpiperidin-1-yl)methyl)-2,5-difluorophenyl)-9-(6-(methylamino)pyrimidin-4-yl)-1,4,9-triazaspiro[5.5]undecan-2-one], the ΔTm at 100 µM on METTL3-METTL14 [4] was found to be 4.7 °C. In addition, in series [5], the EC50 amounted to 700 nM.

`CC1(C)CCN(Cc2cc(F)c(N3CC(=O)NC4(CCN(c5cc(NCC6CCN(C(=O)CCCCCCCCN7CCN(c8cccc9c8C(=O)N(C8CCC(=O)NC8=O)C9=O)CC7)CC6)ncn5)CC4)C3)cc2F)CC1` (stereo not shown) [Compound 49-1] had an IC50 on METTL3-METTL14 [3] of 5 nM. With `CC1(C)CCN(Cc2cc(F)c(N3CC(=O)NC4(CCN(c5cc(NCc6cccc(CNC(=O)CCCCCCCCNc7cccc8c7CN(C7CCC(=O)NC7=O)C8=O)c6)ncn5)CC4)C3)cc2F)CC1` (stereo not shown) [Compound 50-1], the IC50 on METTL3-METTL14 [1] (setting [6]) was 67 nM. On to `CC1(C)CCN(Cc2cc(F)c(N3CC(=O)NC4(CCN(c5cc(NCc6cccc(CNC(=O)CCCCCCCCCCNc7cccc8c7CN(C7CCC(=O)NC7=O)C8=O)c6)ncn5)CC4)C3)cc2F)CC1` (stereo not shown) [Compound 51-1], for which, on METTL3-METTL14 [1] (setting [6]), the IC50 is 160 nM. Take `CC1(C)CCN(Cc2cc(F)c(N3CC(=O)NC4(CCN(c5cc(NCc6cccc(CNC(=O)CCCCCCCCn7cc(CNc8cccc9c8C(=O)N(C8CCC(=O)NC8=O)C9=O)nn7)c6)ncn5)CC4)C3)cc2F)CC1` (stereo not shown) [Compound 52-1]: the IC50 on METTL3-METTL14 [1] (setting [6]) stood at 88 nM. With `CC1(C)CCN(Cc2cc(F)c(N3CC(=O)NC4(CCN(c5cc(NCc6cccc(CNC(=O)CCn7cc(CNc8cccc9c8C(=O)N(C8CCC(=O)NC8=O)C9=O)nn7)c6)ncn5)CC4)C3)cc2F)CC1` (stereo not shown) [Compound 53-1], half-maximal inhibition at METTL3-METTL14 [3] (IC50) required 200 nM. `CC1(C)CCN(Cc2ccc(N3CC(=O)NC4(CCN(c5cc(NCCCNC(=O)CCCCCCCCCCCCCCNc6cccc7c6CN(C6CCC(=O)NC6=O)C7=O)ncn5)CC4)C3)cc2)CC1` (stereo not shown) [Compound 54-1]: on METTL3-METTL14 [1] (setting [6]), the IC50 amounted to 1220 nM. Still for that read-out and setting: the figure for `CC1(C)CCN(Cc2cc(F)c(N3CC(=O)NC4(CCN(c5cc(NCCCNC(=O)CCCCCCCCNc6cccc7c6CN(C6CCC(=O)NC6=O)C7=O)ncn5)CC4)C3)cc2F)CC1` (stereo not shown) [Compound 55-1] is 66 nM; for `CC1(C)CCN(Cc2cc(F)c(N3CC(=O)NC4(CCN(c5cc(NCCCNC(=O)CCCCCCCCCCNc6cccc7c6CN(C6CCC(=O)NC6=O)C7=O)ncn5)CC4)C3)cc2F)CC1` (stereo not shown) [Compound 56-1] it is 300 nM.

`CC1(C)CCN(Cc2ccc(N3CC(=O)NC4(CCN(c5cc(NCCCNC(=O)CCCCCCCCn6cc(CNc7cccc8c7C(=O)N(C7CCC(=O)NC7=O)C8=O)nn6)ncn5)CC4)C3)cc2)CC1` (stereo not shown) [Compound 57-1] returned an IC50 on METTL3-METTL14 [3] of 480 nM.

Take `CC1(C)CCN(Cc2cc(F)c(N3CC(=O)NC4(CCN(c5cc(NCCCNC(=O)CCCCCCCCn6cc(CNc7cccc8c7C(=O)N(C7CCC(=O)NC7=O)C8=O)nn6)ncn5)CC4)C3)cc2F)CC1` (stereo not shown) [Compound 58-1]: the IC50 on METTL3-METTL14 [1] (setting [6]) was 67 nM.

Turning to `CC1(C)CCN(Cc2cc(F)c(N3CC(=O)NC4(CCN(c5cc(NCCCNC(=O)CCCCCCCCCCn6cc(CNc7cccc8c7C(=O)N(C7CCC(=O)NC7=O)C8=O)nn6)ncn5)CC4)C3)cc2F)CC1` (stereo not shown) [Compound 59-1], on METTL3-METTL14 [1] (setting [6]), the IC50 was determined as 220 nM. Take `Nc1ncnc2c1ncn2[C@@H]1O[C@H](CSCC[C@H](N)C(=O)O)[C@@H](O)[C@H]1O` [SAH, S-adenosyl-L-homocysteine, reference compound]: on METTL3-METTL14 [4], the ΔTm at 100 µM amounted to 2.8 °C.

One may read the IC50 as the concentration that gives 50% inhibition.
